According to patent US10653651B2, “Kit for treating cancer with low molecular weight components of aurin tricarboxylic acid complex” (Aurin Biotech Inc., priority 2014, dated 2020):

Assays:
Assay type in all cases: cell-based, human
U251 cells = assay: DNA laddering (apoptosis) in U251 cells; conditions: 10 μM, 1 day, agarose gel
Protocol: For determination of DNA laddering, which is indicative of DNA disintegration, cells were precipitated by centrifugation, washed, and lysed with […] Tris-HCl, 5 mM EDTA, and 3% Triton-X-100. The lysates were incubated at 37° C. for 1 h and then centrifuged at 12,000g for 10 min. They were treated with phenol/chloroform/isoamylalcohol (25:24:1) and chloroform/isoamylalcohol (24:1) twice each, and precipitated with 0.6 volume isopropyl alcohol and 0.1 volume 3 M sodium actate at −20° C. for 30 min. The precipitates were centrifuged at 12,000 g for 20 min, washed with 70% ethanol and dissolved with TE buffer containing 2 μg/mL bovine RNase. DNAs were electrophoresed in 10 μg/mL ethidium bromide containing 2% w/v agarose gel.

VEGF = assay: Western blot of VEGF expression and release by BxPC-3 cells; conditions: 10 μM, 1 day; for expression of vascular endothelial growth factor (VEGF) in BxPC-3 cells: cell extract; for release of VEGF into the extracellular milieu by BxPC-3 cells: supernatant
Protocol: Experiment 2 was designed to determine the effect of ATA, AQA, and AHA on the expression and release of Factor H and VEGF by U251 cells. Cells were grown in DMEM for 24 h at 37° C., after which ATA, AQA, or AHA was added to the medium at a final concentration of 10 μM and incubation carried out for a further 24 h. The medium was drawn off, and the cells washed with PBS. Lysis buffer was then added to the cells. Forty microliters of the cell lysate, or the supernatant media, were loaded onto 12% polyacrylamide gels and separated under non-reducing conditions (70 V, 3-6 h). Following SDS-PAGE, proteins were transferred to a PVDF membrane (Bio-RadTM, CA) at 30 mA for 2 h. The membranes were blocked with 5% milk in PBS-T (80 mM Na2HPO4, 20 mM NaH2PO4, 100 mM NaCl, 0.1% Tween 20, pH 7.4) for 1 h, and incubated overnight at 4° C. with primary antibodies for Factor H (CytotechTM, goat 1/1000) and for VEGF (MilliporeTM, rabbit 1/2000). The membranes were then washed 3 times with PBST. They were then treated with an appropriate horseradish peroxidase (HRP)-conjugated secondary antibody for 3 h at room temperature. The secondary antibodies were anti-rabbit IgG (P0448, DAKOTM, Mississauga, Ontario, CA, 1/2,000) and anti-goat IgG (A[…], MilliporeTM, Billerica, Ma, 1/3,000). The bands were visualized with an enhanced chemiluminescence system and exposure to photographic film (Hyperfilm ECLTM, AmershamTM Pharmacia Biotech, Little Chalfont, UK). For reprobing of membranes with an alternative antibody, the membranes were treated with 10 mL of stripping buffer (3 mL of 1 M Tris-HCl pH 6.7, 10 mL of 10% SDS, 347 μL of 14 M mercaptoethanol, and 36.5 mL deionized water) at 60° C. for 1 h. The membrane was then placed on a shaking incubator for 30 min to clear it of all bound antibodies. The stripped membrane was then treated with a different primary antibody as previously described. Experiment 6 was designed to determine the effect of ATA, AQA, and AHA on the expression and release of Factor H and VEGF by BxPC-3 cells.

Factor H = assay: Western blot of Factor H expression in BxPC-3 cells; conditions: 10 μM, 1 day, cell extract
Protocol: Experiment 2 was designed to determine the effect of ATA, AQA, and AHA on the expression and release of Factor H and VEGF by U251 cells. Cells were grown in DMEM for 24 h at 37° C., after which ATA, AQA, or AHA was added to the medium at a final concentration of 10 μM and incubation carried out for a further 24 h. The medium was drawn off, and the cells washed with PBS. Lysis buffer was then added to the cells. Forty microliters of the cell lysate, or the supernatant media, were loaded onto 12% polyacrylamide gels and separated under non-reducing conditions (70 V, 3-6 h). Following SDS-PAGE, proteins were transferred to a PVDF membrane (Bio-RadTM, CA) at 30 mA for 2 h. The membranes were blocked with 5% milk in PBS-T (80 mM Na2HPO4, 20 mM NaH2PO4, 100 mM NaCl, 0.1% Tween 20, pH 7.4) for 1 h, and incubated overnight at 4° C. with primary antibodies for Factor H (CytotechTM, goat 1/1000) and for VEGF (MilliporeTM, rabbit 1/2000). The membranes were then washed 3 times with PBST. They were then treated with an appropriate horseradish peroxidase (HRP)-conjugated secondary antibody for 3 h at room temperature. The secondary antibodies were anti-rabbit IgG (P0448, DAKOTM, Mississauga, Ontario, CA, 1/2,000) and anti-goat IgG (A[…], MilliporeTM, Billerica, Ma, 1/3,000). […]

| Substance | DNA fragmentation (180 bp laddering) in U251 cells (U251 cells) | expression of vascular endothelial growth factor (VEGF) in BxPC-3 cells (VEGF) | release of VEGF into the extracellular milieu by BxPC-3 cells (VEGF) | expression of Factor H in BxPC-3 cells (Factor H) |
| --- | --- | --- | --- | --- |
| aurin hexacarboxylic acid [AHA] | induced DNA fragmentation | reducing expression | reducing release | reducing expression |
| aurin quadracarboxylic acid [AQA] | induced DNA fragmentation | reducing expression | reducing release | reducing expression |
